In the NIST ThermoML archive (doi:10.1016/j.jct.2015.01.005):

Experiment: molar heat capacity at saturation pressure
Conditions: Crystal 2, Small (less than 1 g) adiabatic calorimetry

O[C@@H]1[C@@H](O)[C@@H]2OC[C@@H](O2)[C@H]1O [1,6-anhydro-β-D-glucopyranose]
Conditions | molar heat capacity [J/K/mol]
5.26 K | 0.1543
5.62 K | 0.1754
5.93 K | 0.2008
6.31 K | 0.2396
6.75 K | 0.2955
7.19 K | 0.3641
7.65 K | 0.4465
8.1 K | 0.5445
8.57 K | 0.6608
9.04 K | 0.7922
9.51 K | 0.9407
9.99 K | 1.112
10.53 K | 1.33
11.15 K | 1.603
11.77 K | 1.9
12.4 K | 2.236
13.05 K | 2.607
13.7 K | 3.009
14.35 K | 3.44
15.01 K | 3.908
15.78 K | 4.473
16.65 K | 5.151
17.53 K | 5.868
18.42 K | 6.609
19.31 K | 7.372
20.21 K | 8.174
21.39 K | 9.247
22.86 K | 10.63
24.35 K | 12.04
25.84 K | 13.46
27.08 K | 14.64
28.51 K | 16.01
30.04 K | 17.43
31.72 K | 19.01
33.56 K | 20.71
35.41 K | 22.39
37.27 K | 24
39.13 K | 25.62
41.1 K | 27.29
43.17 K | 29.02
45.24 K | 30.72
47.32 K | 32.39
49.4 K | 34.01
51.49 K | 35.61
53.58 K | 37.22
55.67 K | 38.75
57.78 K | 40.27
59.89 K | 41.77
62 K | 43.24
64.11 K | 44.7
66.22 K | 46.15
68.34 K | 47.58
70.46 K | 49
72.68 K | 50.47
75.01 K | 51.98
77.35 K | 53.49
78.72 K | 54.4
79.68 K | 54.97
80.68 K | 55.63
80.76 K | 55.68
82.03 K | 56.47
82.6 K | 56.8
82.68 K | 56.86
84.52 K | 57.99
84.6 K | 58.06
86.44 K | 59.2
86.52 K | 59.23
88.37 K | 60.4
88.45 K | 60.45
90.29 K | 61.6
90.37 K | 61.65
92.23 K | 62.79
92.3 K | 62.82
94.16 K | 63.97
94.23 K | 64.01
96.1 K | 65.16
96.17 K | 65.21
98.04 K | 66.35
98.11 K | 66.41
99.98 K | 67.6
100.05 K | 67.69
101.92 K | 69.02
101.99 K | 69.12
103.87 K | 70.46
103.93 K | 70.5
105.82 K | 71.75
105.88 K | 71.76
107.77 K | 72.94
107.83 K | 72.96
109.73 K | 74.07
109.79 K | 74.13
111.69 K | 75.2
111.75 K | 75.25
113.65 K | 76.35
113.71 K | 76.37
115.61 K | 77.45
115.67 K | 77.49
117.58 K | 78.55
117.64 K | 78.6
119.55 K | 79.66
119.61 K | 79.69
121.58 K | 80.81
123.55 K | 81.91
125.53 K | 83.02
127.51 K | 84.1
129.49 K | 85.22
131.47 K | 86.32
133.45 K | 87.41
135.44 K | 88.53
137.43 K | 89.66
139.41 K | 90.74
141.41 K | 91.84
143.4 K | 92.95
145.4 K | 94.05
147.39 K | 95.15
149.39 K | 96.28
151.39 K | 97.39
153.39 K | 98.5
155.4 K | 99.63
157.4 K | 100.7
159.41 K | 101.8
161.42 K | 103
163.43 K | 104.1
165.44 K | 105.2
167.46 K | 106.4
169.47 K | 107.5
171.49 K | 108.6
173.51 K | 109.8
175.53 K | 110.9
177.54 K | 112
179.56 K | 113.2
181.59 K | 114.4
183.61 K | 115.5
185.63 K | 116.7
187.66 K | 117.8
189.68 K | 119
191.71 K | 120.2
193.74 K | 121.4
195.77 K | 122.5
197.79 K | 123.7
199.82 K | 124.9
201.86 K | 126.1
203.89 K | 127.3
205.92 K | 128.5
207.96 K | 129.7
209.99 K | 130.9
212.02 K | 132.1
214.06 K | 133.3
216.09 K | 134.5
218.13 K | 135.7
220.17 K | 137
222.21 K | 138.2
224.25 K | 139.4
226.29 K | 140.7
228.33 K | 141.9
230.36 K | 143.2
232.4 K | 144.5
234.45 K | 145.8
236.49 K | 147
238.53 K | 148.3
240.57 K | 149.6
242.62 K | 150.8
244.66 K | 152.1
246.7 K | 153.4
248.74 K | 154.7
250.79 K | 156.1
252.83 K | 157.3
254.87 K | 158.6
256.92 K | 160
258.96 K | 161.3
260.23 K | 162.2
261.01 K | 162.6
262.15 K | 163.5
263.05 K | 163.9
264.2 K | 164.7
265.1 K | 165.3
266.25 K | 166
267.14 K | 166.6
268.29 K | 167.4
269.19 K | 167.9
270.34 K | 168.8
271.23 K | 169.2
272.38 K | 170.1
273.28 K | 170.7
274.43 K | 171.3
275.32 K | 172
276.48 K | 172.8
277.37 K | 173.3
278.52 K | 174.2
279.42 K | 174.8
280.57 K | 175.4
281.47 K | 176.1
282.61 K | 176.8
283.51 K | 177.3
284.66 K | 178.2
285.56 K | 178.8
286.7 K | 179.6
287.61 K | 180.1
288.75 K | 180.9
289.65 K | 181.5
290.79 K | 182.4
291.7 K | 182.9
292.84 K | 183.6
293.74 K | 184.3
294.88 K | 185.1
295.79 K | 185.6
296.92 K | 186.3
297.83 K | 187
298.97 K | 187.9
299.88 K | 188.4
301.01 K | 189.4
301.92 K | 189.8
303.05 K | 190.6
303.97 K | 191.3
305.1 K | 192.1
306.02 K | 192.6
307.14 K | 193.5
308.06 K | 194.1
309.19 K | 195.1
310.11 K | 195.5
311.24 K | 196.5
312.16 K | 197
313.28 K | 197.9
314.21 K | 198.4
315.33 K | 199.3
316.26 K | 199.9
317.38 K | 200.9
318.31 K | 201.4
319.43 K | 202.3
320.36 K | 202.9
321.48 K | 203.7
322.42 K | 204.4
323.53 K | 205.4
324.47 K | 206
325.58 K | 206.9
326.52 K | 207.5
327.64 K | 208.4
328.57 K | 209.1
329.69 K | 210.1
330.63 K | 210.6
331.74 K | 211.7
332.69 K | 212.3
333.8 K | 213.3
334.74 K | 214
335.85 K | 215.1
336.8 K | 215.7
337.91 K | 216.8
338.86 K | 217.5
339.97 K | 218.6
340.91 K | 219.3
342.02 K | 220.5
342.97 K | 221.2
344.08 K | 222.5
345.03 K | 223.2
346.14 K | 224.6
347.09 K | 225.4
348.19 K | 226.9
349.14 K | 227.7
350.25 K | 229.3
351.21 K | 230.1
352.31 K | 231.9
353.27 K | 232.8
354.37 K | 234.7
355.33 K | 235.6
356.43 K | 237.6
357.38 K | 238.7
358.48 K | 240.7
359.44 K | 242.1
360.54 K | 244.1
361.49 K | 245.9
362.59 K | 248.2
363.55 K | 249.9
364.64 K | 252.8
365.6 K | 255.1
366.69 K | 258.7
367.64 K | 261.8
368.73 K | 265.9
